Consider 74 compounds from PubChem BioAssay AID1996.

≈ marks a conversion by molar mass, not a printed value.

For the series the following is noted: buffer; pH 7.4; 200.0 µM.
In the case of `Cc1cccc(C(=O)N[C@H](C(=O)Nc2ccc(C)c(S(=O)(=O)N3CCOCC3)c2)C(C)C)c1`, the solubility (kinetic) was 5.4 µg/mL (≈ 11.4 µM).
The value for `O=C(NC1CCCC1)C1CC(O)CN1C(=O)Nc1ccccc1` (centres undefined) was above 47.6 µg/mL.
The compound `Cc1noc(C)c1COC(=O)c1ccc(N(C)C)cc1` yielded a kinetic solubility of 1.6 µg/mL (≈ 5.83 µM).
`CC(=O)Nc1ccc(N/C=C/C(=O)c2ccc(Cl)cc2)cc1` came in with a solubility (kinetic) of 2.4 µg/mL (≈ 7.62 µM).
The value for `Cc1ccc(N2CCN(c3ccc([N+](=O)[O-])cn3)CC2)c(C)c1` was 0.3 µg/mL (≈ 0.96 µM).
For `CN1CCN(CC(=O)Nc2ccccc2Oc2ccccc2)CC1` the value was above 48.8 µg/mL; for `Cc1cc(/C=C2/C(=O)NC(=O)N(C)C2=O)c(C)n1-c1ccccc1`, 1.1 µg/mL (≈ 3.4 µM); for `CC(=O)NCCc1nc2cc(NC(=O)c3ccccc3)ccc2n1C`, above 50.5 µg/mL.
For the compound `O=C(Cc1ccccc1)Nc1ncccc1Cl`, the kinetic solubility is above 37 µg/mL.
On to `Cc1cc(NC(=O)OC2CCCCC2)ccc1[N+](=O)[O-]`, for which the kinetic solubility amounted to 0.4 µg/mL (≈ 1.44 µM).
`Cc1ccnc(N/C=C/C(=O)c2ccc(Br)cc2)c1` registered a kinetic solubility below 0.3 µg/mL.
On to `Cc1ccc(NC2CCCN(C(=O)c3cccs3)C2)cc1C` (centres undefined), for which the solubility (kinetic) was determined as 47.1 µg/mL (≈ 150 µM).
Compound `COc1cnc(-c2ccccc2)nc1Oc1ccc(Cl)cc1C` had a kinetic solubility below 0.3 µg/mL.
For `CCOC(=O)c1cnc2c(ccc3ccccc32)c1N` the value was below 0.3 µg/mL.
Compound `O=C(Nc1ccc(Cl)cc1)Nc1ccc(Oc2cccnc2)nc1` gave a kinetic solubility of 0.7 µg/mL (≈ 2.05 µM).
The value for `O=C(COc1ccccc1)Nc1ccccc1C(=O)NC1CC1` was 6.4 µg/mL (≈ 20.6 µM); that for `NC(=S)C(c1ccccc1)c1ncc(C(F)(F)F)cc1Cl` (centres undefined) was 41.7 µg/mL (≈ 126 µM).
For `O=C1NC2(CCCCCC2)C(=O)N1Cc1ccccc1Cl` the value was 6.8 µg/mL (≈ 22.2 µM); for `CC1(C)CC(NC(=O)Cc2ccc(Cl)cc2)CC(C)(C)N1`, above 46.3 µg/mL; for `O=C(O)C1CCN(C(=O)Cc2ccccc2)CC1`, above 37.1 µg/mL.
In the case of `Cc1ccc(O)c(-c2cc(-c3ccc(F)cc3)no2)c1`, the kinetic solubility is below 0.6 µg/mL.
For `CCOc1ccc(N2CC(C(=O)N3CCCCCC3)CC2=O)cc1` (centres undefined) the value was above 49.6 µg/mL; for `Cn1c(N)c(N=O)c(=O)n(C)c1=O`, above 27.6 µg/mL.
For `O=C(NCCCn1ccnc1)/C(=C/c1ccco1)NC(=O)c1cccs1` the value was 50.1 µg/mL (≈ 135 µM).
The value for `Cc1ccc(NC(=O)CN2CCN(Cc3ccccc3)CC2)cc1Cl` was 7.7 µg/mL (≈ 21.5 µM).
`CCC(C)NC(=O)c1cc2c(=O)n3cccc(C)c3nc2s1` (centres undefined) had a solubility (kinetic) of 46 µg/mL (≈ 146 µM). Against the preceding compound, the solubility kinetic is about 6-fold higher.
Compound `CC(C)COc1cccc(C(=O)N(C)CC(=O)Nc2cccc3ccccc23)c1` registered a solubility (kinetic) of 33.6 µg/mL (≈ 86 µM).
For `CC(NC(=O)c1ccc(Cl)cc1)C1CC2CCC1C2` (centres undefined) the value was 1.1 µg/mL (≈ 3.96 µM); for `Cc1ccc2c(c1)-c1[nH]c(=S)ncc1CS2`, 3.8 µg/mL (≈ 15.4 µM); for `CN1C(=O)N(C)c2ccc(Br)c3cccc1c23`, below 0.3 µg/mL.
The value for `CC1CCC(NC(=O)CCNS(=O)(=O)c2ccccc2)CC1` (centres undefined) was above 48.7 µg/mL.
The compound `CC(C)(C)NC(=O)COC(=O)C1c2ccccc2Oc2ccccc21` displayed a solubility (kinetic) of 48.9 µg/mL (≈ 144 µM).
For `COc1ccccc1CCC(=O)OCC(=O)NC1CCCCC1` the value was 43.7 µg/mL (≈ 137 µM); for `CC(Oc1ccccc1)C(=O)Nc1nc(-c2ccncc2)cs1` (centres undefined), 2.6 µg/mL (≈ 7.99 µM).
Take `CCOn1c(=O)c(-c2ccc(C)cc2)[n+]([O-])c2ccccc21`: the kinetic solubility was found to be 33.5 µg/mL (≈ 113 µM).
As for `O=[N+]([O-])c1ccc(SCc2ccncc2)nc1`, the kinetic solubility turned out to be 30.5 µg/mL (≈ 123 µM).
For `CN(C)CCNC(=S)Nc1ccccc1C(C)(C)C` the value was above 41.9 µg/mL; for `NC(=O)C1CCN(C(=O)CCSCc2ccccc2)CC1`, above 46 µg/mL; for `O=C(O)CSCC(=O)NC1CCCc2ccccc21` (centres undefined), above 41.9 µg/mL.
Compound `C=CCNC(=O)C1CC1(c1ccc(C)cc1)c1ccc(C)cc1` (centres undefined) registered a solubility (kinetic) of 30.6 µg/mL (≈ 100 µM).
`CCN(CC)CCN(C(=O)c1ccc2ccccc2c1)c1nc2ccc(OC)cc2s1.Cl` registered a solubility (kinetic) of 14.2 µg/mL.
Regarding `COCCCn1c(=O)c2sccc2n(Cc2cccc(C)c2)c1=O`, the solubility (kinetic) amounted to 15.1 µg/mL (≈ 43.8 µM).
`CCN(CC)CCCNC(=S)Nc1ccc(Br)cc1`: the solubility (kinetic) was above 51.6 µg/mL.
In turn, `CN(C)C(=S)c1ccc(N(C)C)cc1` displayed a kinetic solubility of 28.2 µg/mL (≈ 135 µM).
For `CCOC(=O)C1=C(COC(=O)Cc2ccccc2)NC(=O)NC1C` (centres undefined) the value was above 49.9 µg/mL.
Compound `COc1ccc(CNC(=O)CSc2nc(SC)ns2)cc1` displayed a kinetic solubility of 26.4 µg/mL (≈ 77.3 µM).
`COc1ccc(/C=C/C(=O)OCC(=O)NC2CC2)c(OC)c1`: the solubility (kinetic) is above 45.8 µg/mL.
`Cc1ccc(-c2cc(-c3ccco3)c(C#N)c(=O)[nH]2)cc1`: the solubility (kinetic) was 2.6 µg/mL (≈ 9.41 µM).
For `N#Cc1cccc(C#N)c1Oc1ccc(S(=O)(=O)Nc2ccccc2)cc1` the value was 18.4 µg/mL (≈ 49 µM); for `Clc1ccc(-c2cc(-c3ccccn3)on2)c(Cl)c1`, below 0.3 µg/mL; for `O=C(Cc1ccc(F)cc1)N1CCN(c2ccc(F)cc2)CC1`, above 47.5 µg/mL.
For `Cc1ccccc1S(=O)(=O)NC(=NCc1ccc(F)cc1)c1ccccc1` the value was 34.1 µg/mL (≈ 89.2 µM); for `CCOC(=O)c1[nH]c(C)c(CC(C)C)c1C`, 24 µg/mL (≈ 107 µM).
For `COc1cc(/C=C/[N+](=O)[O-])ccc1OC(=O)/C=C/c1ccc(F)cc1` the value was below 0.7 µg/mL.
For `O=C(NCc1ccco1)C(=O)c1cn(CC(=O)N2CCCCCC2)c2ccccc12`, the solubility (kinetic) is 14.3 µg/mL (≈ 35.1 µM).
`Cc1cc(NC(=O)Nc2c[nH]c(=O)[nH]c2=O)ccc1Br` yielded a kinetic solubility of 1.8 µg/mL (≈ 5.31 µM).
The value for `O=C(Cc1ccccc1)NC(C(=O)O)C(O)c1ccc([N+](=O)[O-])cc1` (centres undefined) was above 51.6 µg/mL; that for `CC1CC=C(c2ccccc2)C(=S)N1` (centres undefined) was above 30.5 µg/mL; that for `CC1CCCC(NC(=O)CCn2c(=S)oc3ccccc32)C1C` (centres undefined) was 2 µg/mL (≈ 6.02 µM).
On to `COc1ccc(C(=O)OCC(=O)c2ccc3c(c2)NC(=O)CO3)cc1S(=O)(=O)N1CCOCC1`, for which the kinetic solubility was found to be 11.3 µg/mL (≈ 23 µM). Compared with the last compound, the solubility kinetic is about 5.7-fold higher.
`COC(=O)c1cc(S(=O)(=O)N2CCCC2)c(Cl)cc1Cl` came in with a kinetic solubility of 41.8 µg/mL (≈ 124 µM).
The value for `CCOC(=O)c1sc(Nc2ccc(OCC)cc2)nc1C` was 0.9 µg/mL (≈ 2.94 µM); that for `O=C(c1ccc2oc(CCc3ccccc3)nc2c1)N1CC[C@H](O)C1` was 41.1 µg/mL (≈ 122 µM); that for `CC1(C)Oc2ccc3ccc(=O)oc3c2/C(=N/O)C1=O` was above 41 µg/mL.
`CC(=O)c1cccc(OCC(=O)NC2CCCCCC2)c1` registered a kinetic solubility above 43.4 µg/mL.
For `Cc1ccc(OCCOC(=O)c2c(-c3ccccc3)noc2C)cc1` the value was below 0.7 µg/mL; for `Nc1nc(Nc2cccc(F)c2)nc(NCCO)c1[N+](=O)[O-]`, 12.8 µg/mL (≈ 41.5 µM); for `Cc1ccc(NC(=O)CN(C)C(=O)Cc2ccccc2F)cc1`, above 47.2 µg/mL.
Turning to `COc1ccc(/C=C/C(=O)NC2CCCCC2C)cc1` (centres undefined), the solubility (kinetic) turned out to be 4 µg/mL (≈ 14.6 µM).
The value for `Cc1cc(-c2ccc(S(=O)(=O)N3CCCCC3)s2)on1` was 2.6 µg/mL (≈ 8.32 µM).
For `COc1ccccc1CC(=O)Nc1cc(C)ccn1` the value was above 38.4 µg/mL.
For `COC(=O)c1ccc(NC(=O)CCC(=O)c2ccc(F)cc2)cc1`, the solubility (kinetic) is below 0.7 µg/mL.
In turn, `COc1ccccc1CNC(=O)COC(=O)c1cc(C)oc1C` came in with a kinetic solubility of 4.3 µg/mL (≈ 13.6 µM).
The value for `CCOc1ccc(OCCSc2nc(N)cc(=O)[nH]2)cc1` was 4.1 µg/mL (≈ 13.3 µM).
